The results in this text go back to EP4667458A1 (Kanaph Therapeutics Inc., priority 2023, dated 2024).

The target of this experiment is T1, KRAS^G12C::SOS1 (Homo sapiens, UniProt Q07889).
T1 sequence (Q07889 1-1333): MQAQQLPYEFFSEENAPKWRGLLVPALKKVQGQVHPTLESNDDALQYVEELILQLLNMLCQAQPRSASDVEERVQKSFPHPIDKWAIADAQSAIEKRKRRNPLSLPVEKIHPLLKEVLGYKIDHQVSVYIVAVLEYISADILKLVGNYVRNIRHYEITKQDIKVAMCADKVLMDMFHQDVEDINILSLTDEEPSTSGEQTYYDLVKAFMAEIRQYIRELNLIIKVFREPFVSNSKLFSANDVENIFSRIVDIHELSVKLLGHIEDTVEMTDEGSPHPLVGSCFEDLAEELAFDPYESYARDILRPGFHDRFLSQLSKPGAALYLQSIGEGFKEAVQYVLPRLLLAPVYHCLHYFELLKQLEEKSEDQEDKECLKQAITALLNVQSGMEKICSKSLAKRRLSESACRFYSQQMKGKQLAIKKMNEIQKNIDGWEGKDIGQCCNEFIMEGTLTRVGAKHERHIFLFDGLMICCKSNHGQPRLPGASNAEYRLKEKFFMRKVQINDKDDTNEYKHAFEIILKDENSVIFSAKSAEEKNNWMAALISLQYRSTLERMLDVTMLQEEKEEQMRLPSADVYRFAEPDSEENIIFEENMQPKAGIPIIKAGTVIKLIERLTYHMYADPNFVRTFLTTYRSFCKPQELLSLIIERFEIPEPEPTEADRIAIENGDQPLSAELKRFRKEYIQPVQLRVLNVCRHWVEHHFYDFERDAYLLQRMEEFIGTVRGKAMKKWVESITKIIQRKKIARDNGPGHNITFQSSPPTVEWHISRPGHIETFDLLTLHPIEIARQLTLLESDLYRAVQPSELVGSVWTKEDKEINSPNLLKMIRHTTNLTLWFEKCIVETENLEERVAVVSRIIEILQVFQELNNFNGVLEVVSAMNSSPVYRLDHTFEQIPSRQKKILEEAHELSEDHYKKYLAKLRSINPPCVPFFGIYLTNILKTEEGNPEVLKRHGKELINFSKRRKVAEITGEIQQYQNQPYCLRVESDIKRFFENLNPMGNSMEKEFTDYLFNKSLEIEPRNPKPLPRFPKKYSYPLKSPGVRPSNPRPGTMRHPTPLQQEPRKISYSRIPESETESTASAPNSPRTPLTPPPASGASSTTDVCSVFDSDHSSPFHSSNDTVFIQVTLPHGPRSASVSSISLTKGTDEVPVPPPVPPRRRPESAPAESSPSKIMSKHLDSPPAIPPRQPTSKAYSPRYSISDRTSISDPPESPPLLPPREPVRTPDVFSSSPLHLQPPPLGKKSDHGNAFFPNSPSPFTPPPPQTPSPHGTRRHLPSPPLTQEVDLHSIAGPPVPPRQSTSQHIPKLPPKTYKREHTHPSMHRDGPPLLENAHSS
The experiment can be described thus: KRAS G12C::SOS1 protein-protein interaction (PPI) inhibition assay (HTRF binding kit).
Usually IC50 stands for the midpoint of a concentration-inhibition curve. Read a low IC50 as greater potency in that assay. Regarding `CNCc1ccc(Cl)cc1-c1ccc([C@@H](C)NC(=O)c2ccc(=O)n(C3CCN(C(C)=O)CC3)n2)s1` [Example 301, 1-(1-acetyl-4-piperidyl)-N-[(1R)-1-[5-[5-chloro-2-(methylaminomethyl)phenyl]-2-thienyl]ethyl]-6-oxo-pyridazine-3-carboxamide], the IC50 is below 1000 nM.

For the compound `C[C@@H](NC(=O)c1ccc(=O)n(-c2cccc(-c3cnn(C)c3)c2)n1)c1cccc(C(F)(F)CO)c1F` [Example 340, N-[(1R)-1-[3-(1,1-difluoro-2-hydroxy-ethyl)-2-fluoro-phenyl]ethyl]-1-[3-(1-methylpyrazol-4-yl)phenyl]-6-oxo-pyridazine-3-carboxamide], the IC50 was below 1000 nM.

`COc1ccc(-n2cc(C(=O)N[C@H](C)c3cc(N)cc(C(F)(F)F)c3)ccc2=O)cc1` [Example 199, N-[(1R)-1-[3-amino-5-(trifluoromethyl)phenyl]ethyl]-1-(4-methoxyphenyl)-6-oxo-pyridine-3-carboxamide]: the IC50 was below 1000 nM.

As to `C[C@@H](NC(=O)c1ccc(=O)n(-c2cccc(-c3ccn[nH]3)c2)n1)c1cc(N)cc(C(F)(F)F)c1` [Example 329, N-[(1R)-1-[3-amino-5-(trifluoromethyl)phenyl]ethyl]-6-oxo-1-[3-(1H-pyrazol-5-yl)phenyl]pyridazine-3-carboxamide], the half-inhibitory concentration (IC50) was below 1000 nM.

Compound `CNCc1ccccc1-c1csc([C@@H](C)NC(=O)c2ccc(=O)n(-c3ccccc3F)n2)c1` [Example 267, 1-(2-fluorophenyl)-N-[(1R)-1-[4-[2-(methylaminomethyl)phenyl]-2-thienyl]ethyl]-6-oxo-pyridazine-3-carboxamide] yielded an IC50 below 1000 nM.

Take `C[C@@H](NC(=O)c1ccc(=O)n(-c2cnn(C)c2)n1)c1cc(N)cc(C(F)(F)F)c1` [Example 200, N-[(1R)-1-[3-amino-5-(trifluoromethyl)phenyl]ethyl]-1-(1-methylpyrazol-4-yl)-6-oxo-pyridazine-3-carboxamide]: the IC50 is below 1000 nM.

`C[C@@H](NC(=O)c1ccc(=O)n(-c2cccc(-c3ccn(C)n3)c2)n1)c1cc(N)cc(C(F)(F)F)c1` [Example 331, N-[(1R)-1-[3-amino-5-(trifluoromethyl)phenyl]ethyl]-1-[3-(1-methylpyrazol-3-yl)phenyl]-6-oxo-pyridazine-3-carboxamide]: the IC50 is below 1000 nM.

`Cc1nc(-n2nc(C(=O)N[C@H](C)c3cc(N)cc(C(F)(F)F)c3)ccc2=O)cs1` [Example 386, N-[(1R)-1-[3-amino-5-(trifluoromethyl)phenyl]ethyl]-1-(2-methylthiazol-4-yl)-6-oxo-pyridazine-3-carboxamide] showed an IC50 below 1000 nM.

`C[C@@H](NC(=O)c1ccc(=O)n(-c2cccnc2F)c1)c1cccc(C(F)(F)CO)c1F` [Example 147, N-[(1R)-1-[3-(1,1-difluoro-2-hydroxy-ethyl)-2-fluoro-phenyl]ethyl]-1-(2-fluoro-3-pyridyl)-6-oxo-pyridine-3-carboxamide] yielded an IC50 below 1000 nM.

On to `CNCc1ccccc1-c1ccc([C@@H](C)NC(=O)c2ccc(=O)n(-c3ccc(F)cc3F)n2)s1` [Example 398, (R)-1-(2,4-difluorophenyl)-N-(1-(5-(2-((methylamino)methyl)phenyl)thiophenyl-2-yl)ethyl)-6-oxo-1,6-dihydropyridazine-3-carboxamide], for which the IC50 is below 1000 nM.

For the compound `COc1cccc(-n2cc(C(=O)N[C@H](C)c3cc(N)cc(C(F)(F)F)c3)ccc2=O)c1F` [Example 187, N-[(1R)-1-[3-amino-5-(trifluoromethyl)phenyl]ethyl]-1-(2-fluoro-3-methoxy-phenyl)-6-oxo-pyridine-3-carboxamide], the 50% inhibitory concentration (IC50) is below 1000 nM.

In the case of `C[C@@H](NC(=O)c1ccc(=O)n(CCF)n1)c1cc(N)cc(C(F)(F)F)c1` [Example 226, N-[(1R)-1-[3-amino-5-(trifluoromethyl)phenyl]ethyl]-1-(2-fluoroethyl)-6-oxo-pyridazine-3-carboxamide], the IC50 was below 1000 nM.

In the case of `C[C@@H](NC(=O)c1ccc(=O)n(-c2cccc(-c3ccnn3C)c2)n1)c1cccc(C(F)(F)CO)c1F` [Example 332, N-[(1R)-1-[3-(1,1-difluoro-2-hydroxy-ethyl)-2-fluoro-phenyl]ethyl]-1-[3-(2-methylpyrazol-3-yl)phenyl]-6-oxo-pyridazine-3-carboxamide], the IC50 was below 1000 nM.

Turning to `C[C@@H](NC(=O)c1ccc(=O)n(-c2cccc(-c3cncs3)c2)n1)c1cc(N)cc(C(F)(F)F)c1` [Example 341, N-[(1R)-1-[3-amino-5-(trifluoromethyl)phenyl]ethyl]-6-oxo-1-(3-thiazol-5-ylphenyl)pyridazine-3-carboxamide], the IC50 was below 1000 nM.

`C[C@@H](NC(=O)c1ccc(=O)n(-c2cccc(C(=O)N(C)C)c2)c1)c1cc(N)cc(C(F)(F)F)c1` [Example 166, N-[(1R)-1-[3-amino-5-(trifluoromethyl)phenyl]ethyl]-1-[3-(dimethylcarbamoyl)phenyl]-6-oxo-pyridine-3-carboxamide] showed an IC50 below 1000 nM.

As to `C[C@@H](NC(=O)c1nn(-c2cnn(C)c2)c(=O)c2cc[nH]c12)c1cc(N)cc(C(F)(F)F)c1` [Example 307, N-[(1R)-1-[3-amino-5-(trifluoromethyl)phenyl]ethyl]-5-(1-methylpyrazol-4-yl)-4-oxo-1H-pyrrolo[2,3-d]pyridazine-7-carboxamide], the half-inhibitory concentration (IC50) is below 1000 nM.

The compound `CNc1cc(=O)n(-c2ccccc2F)nc1C(=O)N[C@H](C)c1cc(N)cc(C(F)(F)F)c1` [Example 383, N-[(1R)-1-[3-amino-5-(trifluoromethyl)phenyl]ethyl]-1-(2-fluorophenyl)-4-(methylamino)-6-oxo-pyridazine-3-carboxamide] yielded an IC50 below 1000 nM.

For the compound `C[C@@H](NC(=O)c1ccc(=O)n(-c2cccc(C(N)=O)c2)n1)c1cc(N)cc(C(F)(F)F)c1` [Example 252, N-[(1R)-1-[3-amino-5-(trifluoromethyl)phenyl]ethyl]-1-(3-carbamoylphenyl)-6-oxo-pyridazine-3-carboxamide], the IC50 is below 1000 nM.

`CNCc1ccccc1-c1ccc([C@@H](C)NC(=O)c2nn(-c3cnn(C)c3)c(=O)c3ccsc23)s1` [Example 290, N-[(1R)-1-[5-[2-(methylaminomethyl)phenyl]-2-thienyl]ethyl]-5-(1-methylpyrazol-4-yl)-4-oxo-thieno[2,3-d]pyridazine-7-carboxamide] gave an IC50 below 1000 nM.

On to `C[C@@H](NC(=O)c1ccc(=O)n(-c2cccnc2)c1)c1cccc(C(F)(F)CO)c1F` [Example 175, N-[(1R)-1-[3-(1,1-difluoro-2-hydroxy-ethyl)-2-fluoro-phenyl]ethyl]-6-oxo-1-(3-pyridyl)pyridine-3-carboxamide], for which the IC50 is 1000 to 10000 nM.

Regarding `CNCc1cccc(F)c1-c1ccc([C@@H](C)NC(=O)c2ccc(=O)n(-c3cccnc3F)n2)s1` [Example 293, N-[(1R)-1-[5-[2-fluoro-6-(methylaminomethyl)phenyl]-2-thienyl]ethyl]-1-(2-fluoro-3-pyridyl)-6-oxo-pyridazine-3-carboxamide], the half-inhibitory concentration (IC50) was below 1000 nM.

`C[C@@H](NC(=O)c1ccc(=O)n(-c2cccnc2F)n1)c1ccc(-c2cc(F)ccc2CC#N)s1` [Example 415, N-[(1R)-1-[5-[2-(cyanomethyl)-5-fluorophenyl]-2-thienyl]ethyl]-1-(2-fluoro-3-pyridyl)-6-oxo-pyridazine-3-carboxamide] registered an IC50 below 1000 nM.

Turning to `C[C@@H](NC(=O)c1ccc(=O)n(-c2ccccc2F)n1)c1cccc(Oc2ccccc2)c1` [Example 306, 1-(2-fluorophenyl)-6-oxo-N-[(1R)-1-(3-phenoxyphenyl)ethyl]pyridazine-3-carboxamide], the IC50 was above 10000 nM.

`C[C@@H](NC(=O)c1ccc(=O)n(-c2ccccc2F)n1)c1cccc(C(F)(F)F)c1F` [Example 259, 1-(2-fluorophenyl)-N-[(1R)-1-[2-fluoro-3-(trifluoromethyl)phenyl]ethyl]-6-oxo-pyridazine-3-carboxamide] came in with an IC50 below 1000 nM.

For `C[C@@H](NC(=O)c1ccc(=O)n(-c2cccc(-c3cnnn3C)c2)c1)c1cc(N)cc(C(F)(F)F)c1` [Example 326, N-[(1R)-1-[3-amino-5-(trifluoromethyl)phenyl]ethyl]-1-[3-(3-methyltriazol-4-yl)phenyl]-6-oxo-pyridine-3-carboxamide], the half-inhibitory concentration (IC50) is below 1000 nM.
